Measurements reported in patent US4994376A, “Detection of bacteroides gingivalis” (priority 1987, dated 1991).
Read-outs that look alike come from different tables or passages of the source.

Legend:
Assay type in all cases: biochemical
B. corporis = test: Aminopeptidase activity on β-naphthylamide substrates; details: strain ATCC 33547; β-naphthylamine liberated after 60 minutes, 37° C.
Summary of the method: (§1)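 N-CBz-glycyl-glycyl-L-arginine-β-naphthylamide was hydrolysed for 1 hour at 37 °C, then coupled with Fast Garnet GBC (0.5 mg/ml) in 1M acetic acid buffer, pH 4.2, containing 10% Tween 20. After 15 minutes at room temperature, absorbance was read at 525 nm against a no-enzyme blank; activity is given as nmol β-naphthylamine released per 60 min.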

B. melaninogenicus = test: as above; details: strain ATCC 25845; β-naphthylamine liberated after 60 minutes, 37° C.
Summary of the method: as §1

C. sputigena = test: as above; details: strain ATCC 33123; β-naphthylamine liberated after 60 minutes, 37° C.
Summary of the method: as §1

B. intermedius = test: as above; details: strain ATCC 25611; β-naphthylamine liberated after 60 minutes, 37° C.
Summary of the method: as §1

B. denticola = test: as above; details: strain ATCC 33185; β-naphthylamine liberated after 60 minutes, 37° C.
Summary of the method: as §1

S. salivarius = test: as above; details: β-naphthylamine liberated after 60 minutes, 37° C.
Summary of the method: (§2)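 Aminopeptidase values express the nanomoles of β-naphthylamine freed from N-CBz-glycyl-glycyl-L-arginine-β-naphthylamide during a 60-minute, 37° C incubation. The liberated amine was coupled with stabilized diazonium salt Fast Garnet GBC and measured at 525 nm against an enzyme-free blank.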

A. equuli = test: as above; details: strain ATCC 19392; β-naphthylamine liberated after 60 minutes, 37° C.
Summary of the method: as §2

Haemophilus aphrophilus = test: as above; details: β-naphthylamine liberated after 60 minutes, 37° C.
Summary of the method: as §2

A. suis = test: as above; details: strain ATCC 15557; β-naphthylamine liberated after 60 minutes, 37° C.
Summary of the method: as §2

L. fermentum = test: as above; details: strain ATCC 11581; β-naphthylamine liberated after 60 minutes, 37° C.
Summary of the method: as §2

F. periodonticum = test: as above; details: strain EK1-15; β-naphthylamine liberated after 60 minutes, 37° C.
Summary of the method: as §2

Lactobacillus casei = test: as above; details: β-naphthylamine liberated after 60 minutes, 37° C.
Summary of the method: as §2

Capnocytophaga sp. = details: strain JD3-5; β-naphthylamine liberated after 60 minutes, 37° C.
Summary of the method: as §1

C. ochracea = details: strain ATCC 27872; β-naphthylamine liberated after 60 minutes, 37° C.
Summary of the method: as §1

B. asaccharolyticus = details: β-naphthylamine liberated after 60 minutes, 37° C.
Summary of the method: as §1

[1] = system: Capnocytophaga gingivalis; details: strain ATCC 33624; β-naphthylamine liberated after 60 minutes, 37° C.
Summary of the method: as §1

B. mel. ss. intermedius = details: β-naphthylamine liberated after 60 minutes, 37° C.
Summary of the method: as §1

B. levii = details: β-naphthylamine liberated after 60 minutes, 37° C.
Summary of the method: as §1

B. loescheii = details: β-naphthylamine liberated after 60 minutes, 37° C.
Summary of the method: as §1

Bacteroides gingivalis = details: β-naphthylamine liberated after 60 minutes, 37° C.
Summary of the method: as §1

Actinomyces israeli = details: β-naphthylamine liberated after 60 minutes, 37° C.
Summary of the method: as §2

S. sanguis = details: β-naphthylamine liberated after 60 minutes, 37° C.
Summary of the method: as §2

A. seminis = details: strain ATCC 15768; β-naphthylamine liberated after 60 minutes, 37° C.
Summary of the method: as §2

Veillonella sp. = details: strain SE1M2; β-naphthylamine liberated after 60 minutes, 37° C.
Summary of the method: as §2

Fusobacterium nucleatum = details: β-naphthylamine liberated after 60 minutes, 37° C.
Summary of the method: as §2

V. parvula = details: strain ATCC 10790; β-naphthylamine liberated after 60 minutes, 37° C.
Summary of the method: as §2

A. viscosus = details: β-naphthylamine liberated after 60 minutes, 37° C.
Summary of the method: as §2

S. mutans = details: strain ATCC 25175; β-naphthylamine liberated after 60 minutes, 37° C.
Summary of the method: as §2

Work on `Cl.N=C(N)NCCC[C@H](NC(=O)CNC(=O)CNC(=O)OCc1ccccc1)C(=O)Nc1ccc2ccccc2c1` [N-CBz-Gly-Gly-Arg, N-carbobenzoxy-glycyl-glycyl-L-arginine-β-naphthylamide hydrochloride] yielded an Aminopeptidase activity (B. corporis) of 1 nmol, an Aminopeptidase activity (B. melaninogenicus) of 0 nmol and an Aminopeptidase activity (C. sputigena) of 5 nmol. The Aminopeptidase activity (B. intermedius) was 0 nmol, the Aminopeptidase activity (B. denticola) was 0 nmol and the Aminopeptidase activity (S. salivarius; strain ATCC 9759) was 0 nmol. It also gave an Aminopeptidase activity (S. salivarius; strain ATCC 25975) of 0 nmol, an Aminopeptidase activity (A. equuli) of 0 nmol and an Aminopeptidase activity (Haemophilus aphrophilus; strain ATCC 13252) of 1 nmol. The Aminopeptidase activity (Haemophilus aphrophilus; strain ATCC 19415) was 1 nmol, the Aminopeptidase activity (Haemophilus aphrophilus; strain NCTC 5908) was 0 nmol and the Aminopeptidase activity (A. suis) was 0 nmol. The Aminopeptidase activity (L. fermentum) was 0 nmol, the Aminopeptidase activity (F. periodonticum) was 0 nmol and the Aminopeptidase activity (Lactobacillus casei; strain ATCC 7469) was 0 nmol. It also gave an Aminopeptidase activity (Lactobacillus casei; strain ATCC 11578) of 0 nmol, an Aminopeptidase activity (Lactobacillus casei; strain ATCC 11582) of 0 nmol and an Aminopeptidase activity (Capnocytophaga sp.) of 0 nmol. It also gave an Aminopeptidase activity (C. ochracea) of 8 nmol, an Aminopeptidase activity (B. asaccharolyticus; strain 536B) of 1 nmol and an Aminopeptidase activity (B. asaccharolyticus; strain ATCC 18569) of 0 nmol. For the same compound, the Aminopeptidase activity (B. asaccharolyticus; strain ATCC 25260) was 0 nmol, the Aminopeptidase activity (B. asaccharolyticus; strain ATCC 27067) was 0 nmol and the Aminopeptidase activity (B. asaccharolyticus; strain NY446) was 2 nmol. The Aminopeptidase activity [1] was 7 nmol, the Aminopeptidase activity (B. mel. ss. intermedius; strain ATCC 25261) was 0 nmol and the Aminopeptidase activity (B. mel. ss. intermedius; strain ATCC 33563) was 1 nmol. The Aminopeptidase activity (B. mel. ss. intermedius; strain NCTC 9336) was 1 nmol, the Aminopeptidase activity (B. levii; strain 18-1-5) was 0 nmol and the Aminopeptidase activity (B. levii; strain 18-1-8) was 1 nmol. The Aminopeptidase activity (B. loescheii; strain ATCC 15930) was 1 nmol, the Aminopeptidase activity (B. loescheii; strain VPI4196) was 0 nmol and the Aminopeptidase activity (Bacteroides gingivalis; strain 9-14K-1) was 61 nmol. The Aminopeptidase activity (Bacteroides gingivalis; strain 11-1-2) was 92 nmol, the Aminopeptidase activity (Bacteroides gingivalis; strain 381) was 91 nmol and the Aminopeptidase activity (Bacteroides gingivalis; strain 1021) was 44 nmol. It also gave an Aminopeptidase activity (Bacteroides gingivalis; strain ATCC 33277) of 84 nmol, an Aminopeptidase activity (Bacteroides gingivalis; strain FAYE 19m-1) of 143 nmol and an Aminopeptidase activity (Actinomyces israeli; strain ATCC 12103) of 0 nmol. For the same compound, the Aminopeptidase activity (Actinomyces israeli; strain DK2-3) was 0 nmol, the Aminopeptidase activity (S. sanguis; strain ATCC 10556) was 0 nmol and the Aminopeptidase activity (S. sanguis; strain ATCC 10557) was 0 nmol. The Aminopeptidase activity (A. seminis) was 1 nmol, the Aminopeptidase activity (Veillonella sp.) was 0 nmol and the Aminopeptidase activity (Fusobacterium nucleatum; strain 2) was 3 nmol. It also gave an Aminopeptidase activity (Fusobacterium nucleatum; strain ATCC 25586) of 0 nmol, an Aminopeptidase activity (Fusobacterium nucleatum; strain D31A-24) of 2 nmol and an Aminopeptidase activity (V. parvula) of 0 nmol. The Aminopeptidase activity (A. viscosus; strain ATCC 19246) was 0 nmol, the Aminopeptidase activity (A. viscosus; strain T14V) was 0 nmol and the Aminopeptidase activity (S. mutans) was 0 nmol.
`NC(=O)[C@@H](N)CCC(=O)O` [α-Glu, α -glutamine] gave an Aminopeptidase activity (B. corporis) of 0 nmol, an Aminopeptidase activity (B. melaninogenicus) of 1 nmol and an Aminopeptidase activity (C. sputigena) of 7 nmol. It also gave an Aminopeptidase activity (B. intermedius) of 0 nmol, an Aminopeptidase activity (B. denticola) of 0 nmol and an Aminopeptidase activity (S. salivarius; strain ATCC 9759) of 0 nmol. The Aminopeptidase activity (S. salivarius; strain ATCC 25975) was 0 nmol, the Aminopeptidase activity (A. equuli) was 0 nmol and the Aminopeptidase activity (Haemophilus aphrophilus; strain ATCC 13252) was 0 nmol. The Aminopeptidase activity (Haemophilus aphrophilus; strain ATCC 19415) was 0 nmol, the Aminopeptidase activity (Haemophilus aphrophilus; strain NCTC 5908) was 0 nmol and the Aminopeptidase activity (A. suis) was 0 nmol. It also gave an Aminopeptidase activity (L. fermentum) of 0 nmol, an Aminopeptidase activity (F. periodonticum) of 0 nmol and an Aminopeptidase activity (Lactobacillus casei; strain ATCC 7469) of 0 nmol. It also gave an Aminopeptidase activity (Lactobacillus casei; strain ATCC 11578) of 3 nmol, an Aminopeptidase activity (Lactobacillus casei; strain ATCC 11582) of 3 nmol and an Aminopeptidase activity (Capnocytophaga sp.) of 0 nmol. For the same compound, the Aminopeptidase activity (C. ochracea) was 5 nmol, the Aminopeptidase activity (B. asaccharolyticus; strain 536B) was 0 nmol and the Aminopeptidase activity (B. asaccharolyticus; strain ATCC 18569) was 0 nmol. For the same compound, the Aminopeptidase activity (B. asaccharolyticus; strain ATCC 25260) was 0 nmol, the Aminopeptidase activity (B. asaccharolyticus; strain ATCC 27067) was 0 nmol and the Aminopeptidase activity (B. asaccharolyticus; strain NY446) was 0 nmol. For the same compound, the Aminopeptidase activity [1] was 5 nmol, the Aminopeptidase activity (B. mel. ss. intermedius; strain ATCC 25261) was 0 nmol and the Aminopeptidase activity (B. mel. ss. intermedius; strain ATCC 33563) was 0 nmol. For the same compound, the Aminopeptidase activity (B. mel. ss. intermedius; strain NCTC 9336) was 0 nmol, the Aminopeptidase activity (B. levii; strain 18-1-5) was 0 nmol and the Aminopeptidase activity (B. levii; strain 18-1-8) was 2 nmol. For the same compound, the Aminopeptidase activity (B. loescheii; strain ATCC 15930) was 0 nmol, the Aminopeptidase activity (B. loescheii; strain VPI4196) was 0 nmol and the Aminopeptidase activity (Bacteroides gingivalis; strain 9-14K-1) was 0 nmol. For the same compound, the Aminopeptidase activity (Bacteroides gingivalis; strain 11-1-2) was 0 nmol, the Aminopeptidase activity (Bacteroides gingivalis; strain 381) was 0 nmol and the Aminopeptidase activity (Bacteroides gingivalis; strain 1021) was 0 nmol. The Aminopeptidase activity (Bacteroides gingivalis; strain ATCC 33277) was 1 nmol, the Aminopeptidase activity (Bacteroides gingivalis; strain FAYE 19m-1) was 0 nmol and the Aminopeptidase activity (Actinomyces israeli; strain ATCC 12103) was 0 nmol. The Aminopeptidase activity (Actinomyces israeli; strain DK2-3) was 0 nmol, the Aminopeptidase activity (S. sanguis; strain ATCC 10556) was 0 nmol and the Aminopeptidase activity (S. sanguis; strain ATCC 10557) was 0 nmol. The Aminopeptidase activity (A. seminis) was 0 nmol, the Aminopeptidase activity (Veillonella sp.) was 0 nmol and the Aminopeptidase activity (Fusobacterium nucleatum; strain 2) was 0 nmol. The Aminopeptidase activity (Fusobacterium nucleatum; strain ATCC 25586) was 0 nmol, the Aminopeptidase activity (Fusobacterium nucleatum; strain D31A-24) was 1 nmol and the Aminopeptidase activity (V. parvula) was 0 nmol. The Aminopeptidase activity (A. viscosus; strain ATCC 19246) was 0 nmol, the Aminopeptidase activity (A. viscosus; strain T14V) was 0 nmol and the Aminopeptidase activity (S. mutans) was 0 nmol.
